Literature values in patent US8367683B2, “Composition and method for treatment of warts” (Medcara, L.L.C., priority 2005, dated 2013).

Test system: warts
Details: even with patient compliance; applied several times a day over weeks to months

## O=C(O)c1ccccc1O [salicylic acid]
  share of users who experience success: less than half
